Test results from PubChem BioAssay (NCI).
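Values below derive from 48-hour exposures of cells grown in 96-well plates, with endpoints linearly interpolated between the two concentrations bracketing the appropriate inhibition level. TGI marks complete inhibition of growth.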

Tests used:
Assay in all cases: growth of human tumour cells (NCI), 48 h
MALME-3M melanoma = system: MALME-3M melanoma
CAKI-1 renal = system: CAKI-1 renal
LXFL 529 NSCLC = system: LXFL 529 NSCLC
KM12 colon = system: KM12 colon
SK-MEL-28 melanoma = system: SK-MEL-28 melanoma
786-0 renal = system: 786-0 renal
IGROV1 ovarian = system: IGROV1 ovarian
LOX IMVI melanoma = system: LOX IMVI melanoma
OVCAR-8 ovarian = system: OVCAR-8 ovarian
NCI-H460 lung = system: NCI-H460 lung
SK-OV-3 ovarian = system: SK-OV-3 ovarian
NCI-H522 lung = system: NCI-H522 lung
CCRF-CEM leukemia = system: CCRF-CEM leukemia
UO-31 renal = system: UO-31 renal
DLD-1 colon = system: DLD-1 colon
HT29 colon = system: HT29 colon
UACC-62 melanoma = system: UACC-62 melanoma
A549 NSCLC = system: A549 NSCLC
HCT-15 colon = system: HCT-15 colon
SK-MEL-5 melanoma = system: SK-MEL-5 melanoma
HOP-18 NSCLC = system: HOP-18 NSCLC
SNB-78 CNS = system: SNB-78 CNS
HCT-116 colon = system: HCT-116 colon
SW-620 colon = system: SW-620 colon
NCI-H23 lung = system: NCI-H23 lung
TK-10 renal = system: TK-10 renal
COLO 205 colon = system: COLO 205 colon
M19-MEL melanoma = system: M19-MEL melanoma
RXF-631 renal = system: RXF-631 renal
DMS 273 small cell lung = system: DMS 273 small cell lung
ACHN renal = system: ACHN renal
SNB-75 CNS = system: SNB-75 CNS
RPMI-8226 leukemia = system: RPMI-8226 leukemia
A498 renal = system: A498 renal
RXF 393 renal = system: RXF 393 renal
OVCAR-3 ovarian = system: OVCAR-3 ovarian
EKVX NSCLC = system: EKVX NSCLC
UACC-257 melanoma = system: UACC-257 melanoma
SN12C renal = system: SN12C renal
HCC-2998 colon = system: HCC-2998 colon
MOLT-4 leukemia = system: MOLT-4 leukemia
HOP-92 NSCLC = system: HOP-92 NSCLC
SF-295 CNS = system: SF-295 CNS
U251 CNS = system: U251 CNS
SF-539 CNS = system: SF-539 CNS
K-562 leukemia = system: K-562 leukemia
SK-MEL-2 melanoma = system: SK-MEL-2 melanoma
NCI-H226 lung = system: NCI-H226 lung
HL-60(TB) leukemia = system: HL-60(TB) leukemia
KM20L2 colon = system: KM20L2 colon
SF-268 CNS = system: SF-268 CNS
SNB-19 CNS = system: SNB-19 CNS
M14 melanoma = system: M14 melanoma
DMS 114 small cell lung = system: DMS 114 small cell lung
HOP-62 NSCLC = system: HOP-62 NSCLC
SR leukemia = system: SR leukemia
XF 498 CNS = system: XF 498 CNS
OVCAR-4 ovarian = system: OVCAR-4 ovarian

`COC1=CC(=C(C#N)C(=Nc2ccccc2)SC)C=C(OC)C1=O` was tested, and the TGI (MALME-3M melanoma) was over 100 µM, the TGI (CAKI-1 renal) was over 100 µM and the TGI (LXFL 529 NSCLC) was 36.2 µM. It also gave a TGI (KM12 colon) of over 100 µM, a TGI (SK-MEL-28 melanoma) of over 100 µM and a TGI (786-0 renal) of over 100 µM. The TGI (IGROV1 ovarian) was over 100 µM, the TGI (LOX IMVI melanoma) was over 100 µM and the TGI (OVCAR-8 ovarian) was over 100 µM. It also gave a TGI (NCI-H460 lung) of over 100 µM, a TGI (SK-OV-3 ovarian) of over 100 µM and a TGI (NCI-H522 lung) of over 100 µM. It also gave a TGI (CCRF-CEM leukemia) of 43.5 µM, a TGI (UO-31 renal) of over 100 µM and a TGI (DLD-1 colon) of 77.3 µM. It also gave a TGI (HT29 colon) of over 100 µM, a TGI (UACC-62 melanoma) of over 100 µM and a TGI (A549 NSCLC) of over 100 µM. The TGI (HCT-15 colon) was over 100 µM, the TGI (SK-MEL-5 melanoma) was 42.7 µM and the TGI (HOP-18 NSCLC) was over 100 µM. It also gave a TGI (SNB-78 CNS) of over 100 µM, a TGI (HCT-116 colon) of over 100 µM and a TGI (SW-620 colon) of over 100 µM. It also gave a TGI (NCI-H23 lung) of over 100 µM, a TGI (TK-10 renal) of over 100 µM and a TGI (COLO 205 colon) of over 100 µM. For the same compound, the TGI (M19-MEL melanoma) was over 100 µM, the TGI (RXF-631 renal) was over 100 µM and the TGI (DMS 273 small cell lung) was over 100 µM. For the same compound, the TGI (ACHN renal) was over 100 µM, the TGI (SNB-75 CNS) was over 100 µM and the TGI (RPMI-8226 leukemia) was 52.2 µM. For the same compound, the TGI (A498 renal) was 80 µM, the TGI (RXF 393 renal) was 78 µM and the TGI (OVCAR-3 ovarian) was over 100 µM. It also gave a TGI (EKVX NSCLC) of over 100 µM, a TGI (UACC-257 melanoma) of over 100 µM and a TGI (SN12C renal) of over 100 µM. The TGI (HCC-2998 colon) was over 100 µM, the TGI (MOLT-4 leukemia) was 53.1 µM and the TGI (HOP-92 NSCLC) was 9.97 µM. For the same compound, the TGI (SF-295 CNS) was over 100 µM, the TGI (U251 CNS) was 2.62 µM and the TGI (SF-539 CNS) was over 100 µM. The TGI (K-562 leukemia) was 63.1 µM.
With `CC1CCN(CCC(=O)CC(c2ccccc2)c2c(O)c3ccccc3oc2=O)CC1` (stereo not drawn) the TGI (SK-MEL-2 melanoma) was over 100 µM, the TGI (CAKI-1 renal) was over 100 µM and the TGI (NCI-H226 lung) was over 100 µM. It also gave a TGI (KM12 colon) of over 100 µM, a TGI (SK-MEL-28 melanoma) of over 100 µM and a TGI (786-0 renal) of over 100 µM. It also gave a TGI (IGROV1 ovarian) of over 100 µM, a TGI (LOX IMVI melanoma) of over 100 µM and a TGI (OVCAR-8 ovarian) of over 100 µM. For the same compound, the TGI (NCI-H460 lung) was over 100 µM, the TGI (SK-OV-3 ovarian) was over 100 µM and the TGI (NCI-H522 lung) was over 100 µM. It also gave a TGI (HL-60(TB) leukemia) of over 100 µM, a TGI (KM20L2 colon) of over 100 µM and a TGI (CCRF-CEM leukemia) of over 100 µM. The TGI (UO-31 renal) was over 100 µM, the TGI (SF-268 CNS) was over 100 µM and the TGI (DLD-1 colon) was over 100 µM. It also gave a TGI (HT29 colon) of over 100 µM, a TGI (UACC-62 melanoma) of over 100 µM and a TGI (A549 NSCLC) of over 100 µM. The TGI (HCT-15 colon) was over 100 µM, the TGI (SNB-19 CNS) was over 100 µM and the TGI (SK-MEL-5 melanoma) was over 100 µM. The TGI (M14 melanoma) was over 100 µM, the TGI (SNB-78 CNS) was over 100 µM and the TGI (HCT-116 colon) was over 100 µM. The TGI (DMS 114 small cell lung) was over 100 µM, the TGI (SW-620 colon) was over 100 µM and the TGI (HOP-62 NSCLC) was over 100 µM. It also gave a TGI (NCI-H23 lung) of over 100 µM, a TGI (TK-10 renal) of over 100 µM and a TGI (COLO 205 colon) of over 100 µM. The TGI (M19-MEL melanoma) was over 100 µM, the TGI (RXF-631 renal) was over 100 µM and the TGI (DMS 273 small cell lung) was over 100 µM. The TGI (SR leukemia) was over 100 µM, the TGI (ACHN renal) was over 100 µM and the TGI (SNB-75 CNS) was over 100 µM. The TGI (RPMI-8226 leukemia) was over 100 µM, the TGI (XF 498 CNS) was over 100 µM and the TGI (A498 renal) was over 100 µM. The TGI (RXF 393 renal) was over 100 µM, the TGI (OVCAR-3 ovarian) was over 100 µM and the TGI (EKVX NSCLC) was over 100 µM. For the same compound, the TGI (OVCAR-4 ovarian) was over 100 µM, the TGI (UACC-257 melanoma) was over 100 µM and the TGI (MOLT-4 leukemia) was over 100 µM. The TGI (SF-295 CNS) was over 100 µM, the TGI (U251 CNS) was over 100 µM and the TGI (SF-539 CNS) was over 100 µM. The TGI (K-562 leukemia) was over 100 µM.
